Key:
[1] = test system: galium; experiment: Test A postemergence herbicide test; type: in vivo, Galium aparine; settings: for Plant response rating, Galium: 125 g ai/ha; for Galium plant response rating (0 to 100 scale, 0 is no effect, 100 is complete control): 500 g ai/ha
Summary of the method: (§1)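 Blackgrass and galium grown in pots of loam soil–sand blend, treated postemergence at 2–10 cm height, one- to two-leaf stage. Plants kept in greenhouse ~10 days, then visually rated for injury against untreated controls on a 0–100 scale (0 no effect, 100 complete control).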

[2] = test system: ryegrass, Italian; experiment: Test A pre-/postemergence herbicide test; type: in vivo, Lolium multiflorum
Summary of the method: (§2)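 Scoring was visual, relative to untreated controls, on a 0–100 scale after about 10 greenhouse days. Preemergence treatment used a directed soil spray over seeded loam/sand; postemergence treatment targeted one- to two-leaf plants of 2–10 cm.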

[3] = test system: rice; experiment: Test B flooded paddy test; type: in vivo, Oryza sativa; settings: Flood, scale of 0 to 100 where 0 is no effect and 100 is complete control
Summary of the method: (§3)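 Plants grown to 2-leaf stage; pots flooded 3 cm above soil and compound applied directly into paddy water, depth held throughout. Visual rating against untreated controls after 13 to 15 days in greenhouse, 0 (no effect) to 100 (complete control).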

[4] = test system: kochia; experiment: Test A pre-/postemergence herbicide test; type: in vivo, Kochia scoparia
Summary of the method: as §2

[5] = test system: wheat; experiment: Test A pre-/postemergence herbicide test; type: in vivo, Triticum aestivum; settings: Postemergence; for Plant response rating, Wheat: 125 g ai/ha; for Wheat plant response rating (0 to 100 scale, 0 is no effect, 100 is complete control): 500 g ai/ha
Summary of the method: as §2

[6] = test system: corn; experiment: Test A pre-/postemergence herbicide test; type: in vivo, Zea mays; settings: Postemergence
Summary of the method: as §2

[7] = test system: pigweed; experiment: Test A pre-/postemergence herbicide test; type: in vivo, Amaranthus retroflexus
Summary of the method: as §2

[8] = test system: giant foxtail; experiment: Test A pre-/postemergence herbicide test; type: in vivo, Setaria faberii
Summary of the method: as §2

[9] = test system: blackgrass; experiment: Test A postemergence herbicide test; type: in vivo, Alopecurus myosuroides
Summary of the method: as §1

[10] = test system: ducksalad; experiment: Test B flooded paddy test; type: in vivo, Heteranthera limosa; settings: Flood, scale of 0 to 100 where 0 is no effect and 100 is complete control
Summary of the method: as §3

[11] = test system: ragweed; experiment: Test A pre-/postemergence herbicide test; type: in vivo, Ambrosia elatior
Summary of the method: as §2

[12] = test system: barnyardgrass; experiment: Test A pre-/postemergence herbicide test; type: in vivo, Echinochloa crus-galli
Summary of the method: as §2

[13] = test system: barnyardgrass; experiment: Test B flooded paddy test; type: in vivo, Echinochloa crus-galli; settings: Flood, scale of 0 to 100 where 0 is no effect and 100 is complete control
Summary of the method: as §3

[14] = test system: sedge, umbrella; experiment: Test B flooded paddy test; type: in vivo, Cyperus difformis; settings: Flood, scale of 0 to 100 where 0 is no effect and 100 is complete control
Summary of the method: as §3

[15] = visual rating on 0 to 100 scale (0 no effect, 100 complete control), approx. 10 days
[16] = Postemergence, 125 g ai/ha, visual rating on 0 to 100 scale (0 no effect, 100 complete control), approx. 10 days
[17] = Preemergence, 125 g ai/ha, 0 to 100 scale where 0 is no effect and 100 is complete control
[18] = Preemergence, 500 g ai/ha, visual rating on 0 to 100 scale (0 no effect, 100 complete control)
[19] = 125 g ai/ha, visual rating on 0 to 100 scale (0 no effect, 100 complete control), approx. 10 days
[20] = 500 g ai/ha, 0 to 100 scale (0 no effect, 100 complete control)
[21] = Postemergence, 500 g ai/ha, 0 to 100 scale (0 no effect, 100 complete control)
[22] = 0 to 100 scale, 0 is no effect, 100 is complete control
[23] = 125 g ai/ha, visual rating, 0 to 100 scale, 0 no effect, 100 complete control, approximately 10 days, preemergence
[24] = Postemergence, 125 g ai/ha, 0 to 100 scale, 0 is no effect, 100 is complete control
[25] = preemergence, 500 g ai/ha, 0 to 100 scale, 0 is no effect and 100 is complete control
[26] = 125 g ai/ha, 0 to 100 scale, 0 is no effect, 100 is complete control

O=C1NCC(c2ccc(Br)c(Br)c2)C1C(=O)Nc1cccc(F)c1F (stereo not drawn) [Compound 341]
70: Plant response rating, Foxtail, Giant [8, 21]
50: Plant response rating, Foxtail, Giant [8, 16] | Plant response rating, Barnyardgrass [12, 21] | Plant response rating, Barnyardgrass [12, 17]
0: Plant response rating, Galium [1, 15] | Plant response rating, Ryegrass, Italian [2, 16] | Plant response rating, Ryegrass, Italian [2, 17] | Ryegrass, Italian plant response rating [2, 18] | Plant response rating, Rice ([3]; 500 g ai/ha) | Plant response rating, Kochia [4, 16] | Plant response rating, Kochia [4, 17] | Kochia plant response rating [4, 18] | Plant response rating, Wheat [5, 15] | Plant response rating, Corn [6, 19] | Plant response rating, Pigweed [7, 16] | Plant response rating, Pigweed [7, 17] | Pigweed plant response rating [7, 18] | Plant response rating, Blackgrass [9, 19] | Plant response rating, Blackgrass [9, 20] | Plant response rating, Ducksalad ([10]; 500 g ai/ha) | Plant response rating, Ragweed [11, 16] | Plant response rating, Ragweed [11, 17] | Ragweed plant response rating [11, 18] | Plant response rating, Barnyardgrass ([13]; 500 g ai/ha) | Plant response rating, Sedge, Umbrella ([14]; 500 g ai/ha)
30: Plant response rating, Corn [6, 20] | Plant response rating, Barnyardgrass [12, 16]
80: Plant response rating, Foxtail, Giant [8, 17] | Barnyardgrass plant response rating [12, 18]
90: Foxtail, Giant plant response rating [8, 18]

O=C1NCC(c2ccc(-c3ccccc3C(F)(F)F)cc2)C1C(=O)Nc1cccc(F)c1F (stereo not drawn) [Compound 236]
70: Plant response rating, Ducksalad ([10]; 1000 g ai/ha)
0: Plant response rating, Galium [1, 22] | Galium plant response rating (0 to 100 scale, 0 is no effect, 100 is complete control) [1] | Plant response rating, Ryegrass, Italian [2, 23] | Plant response rating, Ryegrass, Italian [2, 24] | Ryegrass, Italian plant response rating (0 to 100 scale, 0 is no effect, 100 is complete control) ([2]; Postemergence, 500 g ai/ha) | Plant response rating, Rice ([3]; 1000 g ai/ha) | Plant response rating, Kochia [4, 23] | Plant response rating, Kochia [4, 24] | Kochia plant response rating (0 to 100 scale, 0 is no effect, 100 is complete control) ([4]; Postemergence, 500 g ai/ha) | Plant response rating, Kochia [4, 25] | Plant response rating, Wheat [5, 22] | Wheat plant response rating (0 to 100 scale, 0 is no effect, 100 is complete control) [5] | Plant response rating, Corn [6, 26] | Corn plant response rating (0 to 100 scale, 0 is no effect, 100 is complete control) ([6]; 500 g ai/ha) | Plant response rating, Pigweed [7, 23] | Plant response rating, Pigweed [7, 24] | Pigweed plant response rating (0 to 100 scale, 0 is no effect, 100 is complete control) ([7]; Postemergence, 500 g ai/ha) | Plant response rating, Pigweed [7, 25] | Plant response rating, Foxtail, Giant [8, 23] | Plant response rating, Foxtail, Giant [8, 24] | Foxtail, Giant plant response rating (0 to 100 scale, 0 is no effect, 100 is complete control) ([8]; Postemergence, 500 g ai/ha) | Plant response rating, Foxtail, Giant [8, 25] | Plant response rating, Blackgrass [9, 26] | Blackgrass plant response rating (0 to 100 scale, 0 is no effect, 100 is complete control) ([9]; 500 g ai/ha) | Plant response rating, Ragweed [11, 23] | Plant response rating, Ragweed [11, 24] | Ragweed plant response rating (0 to 100 scale, 0 is no effect, 100 is complete control) ([11]; Postemergence, 500 g ai/ha) | Plant response rating, Barnyardgrass [12, 23] | Plant response rating, Barnyardgrass [12, 24] | Barnyardgrass plant response rating (0 to 100 scale, 0 is no effect, 100 is complete control) ([12]; Postemergence, 500 g ai/ha) | Plant response rating, Barnyardgrass [12, 25] | Plant response rating, Sedge, Umbrella ([14]; 1000 g ai/ha)
30: Plant response rating, Ragweed [11, 25]
40: Plant response rating, Barnyardgrass ([13]; 1000 g ai/ha)
50: Plant response rating, Ryegrass, Italian [2, 25]

O=C1NCC(c2cccc(OC(F)F)c2)C1C(=O)Nc1ccccc1C(F)(F)F (stereo not drawn) [Compound 222]
50: Plant response rating, Ryegrass, Italian [2, 25] | Plant response rating, Kochia [4, 25]
40: Kochia plant response rating (0 to 100 scale, 0 is no effect, 100 is complete control) ([4]; Postemergence, 500 g ai/ha) | Ragweed plant response rating (0 to 100 scale, 0 is no effect, 100 is complete control) ([11]; Postemergence, 500 g ai/ha)
100: Plant response rating, Ducksalad ([10]; 500 g ai/ha)
90: Plant response rating, Foxtail, Giant [8, 23] | Foxtail, Giant plant response rating (0 to 100 scale, 0 is no effect, 100 is complete control) ([8]; Postemergence, 500 g ai/ha) | Plant response rating, Foxtail, Giant [8, 25] | Barnyardgrass plant response rating (0 to 100 scale, 0 is no effect, 100 is complete control) ([12]; Postemergence, 500 g ai/ha) | Plant response rating, Barnyardgrass [12, 25]
20: Plant response rating, Ryegrass, Italian [2, 23] | Plant response rating, Ryegrass, Italian [2, 24] | Plant response rating, Wheat [5, 22] | Plant response rating, Corn [6, 26] | Pigweed plant response rating (0 to 100 scale, 0 is no effect, 100 is complete control) ([7]; Postemergence, 500 g ai/ha) | Plant response rating, Ragweed [11, 25]
0: Plant response rating, Rice ([3]; 500 g ai/ha) | Plant response rating, Kochia [4, 23] | Plant response rating, Kochia [4, 24] | Plant response rating, Pigweed [7, 23] | Plant response rating, Pigweed [7, 24] | Plant response rating, Ragweed [11, 23] | Plant response rating, Ragweed [11, 24] | Plant response rating, Sedge, Umbrella ([14]; 500 g ai/ha)
60: Galium plant response rating (0 to 100 scale, 0 is no effect, 100 is complete control) [1] | Corn plant response rating (0 to 100 scale, 0 is no effect, 100 is complete control) ([6]; 500 g ai/ha) | Blackgrass plant response rating (0 to 100 scale, 0 is no effect, 100 is complete control) ([9]; 500 g ai/ha) | Plant response rating, Barnyardgrass ([13]; 500 g ai/ha)
80: Plant response rating, Foxtail, Giant [8, 24]
30: Plant response rating, Galium [1, 22] | Ryegrass, Italian plant response rating (0 to 100 scale, 0 is no effect, 100 is complete control) ([2]; Postemergence, 500 g ai/ha) | Wheat plant response rating (0 to 100 scale, 0 is no effect, 100 is complete control) [5] | Plant response rating, Pigweed [7, 25] | Plant response rating, Blackgrass [9, 26]
70: Plant response rating, Barnyardgrass [12, 23] | Plant response rating, Barnyardgrass [12, 24]

O=C1NCC(c2ccc(Cl)cc2)C1C(=O)Nc1ccccc1C(F)(F)F (stereo not drawn) [Compound 219]
90: Plant response rating, Foxtail, Giant [8, 23] | Plant response rating, Foxtail, Giant [8, 25]
70: Plant response rating, Kochia [4, 25]
80: Foxtail, Giant plant response rating (0 to 100 scale, 0 is no effect, 100 is complete control) ([8]; Postemergence, 500 g ai/ha)
30: Plant response rating, Galium [1, 22] | Plant response rating, Barnyardgrass [12, 23]
50: Blackgrass plant response rating (0 to 100 scale, 0 is no effect, 100 is complete control) ([9]; 500 g ai/ha) | Barnyardgrass plant response rating (0 to 100 scale, 0 is no effect, 100 is complete control) ([12]; Postemergence, 500 g ai/ha)
0: Plant response rating, Ryegrass, Italian [2, 23] | Plant response rating, Ryegrass, Italian [2, 24] | Ryegrass, Italian plant response rating (0 to 100 scale, 0 is no effect, 100 is complete control) ([2]; Postemergence, 500 g ai/ha) | Plant response rating, Ryegrass, Italian [2, 25] | Plant response rating, Rice ([3]; 500 g ai/ha) | Plant response rating, Kochia [4, 24] | Plant response rating, Wheat [5, 22] | Wheat plant response rating (0 to 100 scale, 0 is no effect, 100 is complete control) [5] | Plant response rating, Corn [6, 26] | Corn plant response rating (0 to 100 scale, 0 is no effect, 100 is complete control) ([6]; 500 g ai/ha) | Plant response rating, Pigweed [7, 23] | Plant response rating, Pigweed [7, 24] | Pigweed plant response rating (0 to 100 scale, 0 is no effect, 100 is complete control) ([7]; Postemergence, 500 g ai/ha) | Plant response rating, Pigweed [7, 25] | Plant response rating, Ragweed [11, 23] | Plant response rating, Ragweed [11, 24] | Ragweed plant response rating (0 to 100 scale, 0 is no effect, 100 is complete control) ([11]; Postemergence, 500 g ai/ha) | Plant response rating, Ragweed [11, 25] | Plant response rating, Sedge, Umbrella ([14]; 500 g ai/ha)
100: Plant response rating, Ducksalad ([10]; 500 g ai/ha)
60: Galium plant response rating (0 to 100 scale, 0 is no effect, 100 is complete control) [1] | Plant response rating, Foxtail, Giant [8, 24] | Plant response rating, Barnyardgrass [12, 25]
10: Plant response rating, Kochia [4, 23] | Kochia plant response rating (0 to 100 scale, 0 is no effect, 100 is complete control) ([4]; Postemergence, 500 g ai/ha)
40: Plant response rating, Blackgrass [9, 26] | Plant response rating, Barnyardgrass [12, 24] | Plant response rating, Barnyardgrass ([13]; 500 g ai/ha)

Reference: US10294202B2, “Pyrrolidinones as herbicides” (FMC Corporation, priority 2013, dated 2019)
